Source: patent publication US10544133B2, “Heteroaryl substituted pyridyl compounds useful as kinase modulators” (BRISTOL-MYERS SQUIBB COMPANY, priority 2012, dated 2020)
pEC50, pIC50: −log10 of the molar value. Read-outs that look alike come from different tables or passages of the source.

System: TLR2 induced IL-6 in peripheral blood mononuclear cells (PBMCs)
Assay: PBMC TLR2 Induced IL-6 Assay
Type: cell-based
Settings: lipoteichoic acid 10 μg/ml 5 h, IL-6 by ELISA
Description: PBMC TLR2 Induced IL-6 Assay
Peripheral blood mononuclear cells (PBMCs) were isolated from human blood containing the anti-coagulant EDTA (2.5 mM) by centrifugation over a FICOLL® gradient. PBMCs (250000 cells/well) were cultured in assay media (RPMI with 10% heat inactivated FCS) with compounds for 30 minutes at 37° C. in a 5% CO2 incubator. Following pretreatment with compounds, cells were stimulated for 5 hours with 10 μg/ml lipoteichoic acid (Invivogen, San Diego, Calif.), a TLR2 agonist. At the end of the culture, plates were centrifuged at 1800 rpm for 10 minutes to pellet the cells. Supernatants were harvested and analyzed for IL-6 levels by ELISA (BD Biosciences, San Jose, Calif.).

[1] = Homo sapiens, PBMC, 5 h, value marked * = EC50, read-out: Cell EC50 (*)

Row | SMILES | pEC50 [1] | also measured
1 | CC(C)Nc1cc(Nc2ncc(C#N)cc2Cl)ncc1C(=O)NC1CCC(C(C)(C)O)CC1 (centres unmarked) [Example 102] | 7.15 | 
2 | CC(C)(O)[C@H](F)CNC(=O)c1cnc(Nc2ncc(C#N)cc2F)cc1NC1CCCOC1 (some centres unmarked) [Example 98] |  | pIC50 (Homo sapiens, PBMC, 5 h, value without asterisk, read-out: Cell IC50): 6.16
3 | Cc1cnc(Nc2cc(NC(C)C)c(C(=O)NC[C@@H](F)C(C)(C)O)cn2)c(F)c1 [Example 129] | 6.40 | 
4 | CC(C)(O)[C@H](F)CNC(=O)c1cnc(Nc2ncc(C#N)c(N)n2)cc1NC1CC1 [Example 154] |  | pEC50 (human PBMCs, value marked * = EC50, read-out: Cell EC50 (*)): 6.28
5 | CC(C)(O)[C@H](F)CNC(=O)c1cnc(Nc2ncc(C#N)cc2F)cc1NC1COC1 [Example 164] | 6.76 | 
